Tests used:
[1] = target: T1, Polyunsaturated fatty acid 5-lipoxygenase (Homo sapiens) (UniProt P09917); assay: 5LO Eurofins-Panlabs selectivity data (BI)
T1 sequence (whole entry): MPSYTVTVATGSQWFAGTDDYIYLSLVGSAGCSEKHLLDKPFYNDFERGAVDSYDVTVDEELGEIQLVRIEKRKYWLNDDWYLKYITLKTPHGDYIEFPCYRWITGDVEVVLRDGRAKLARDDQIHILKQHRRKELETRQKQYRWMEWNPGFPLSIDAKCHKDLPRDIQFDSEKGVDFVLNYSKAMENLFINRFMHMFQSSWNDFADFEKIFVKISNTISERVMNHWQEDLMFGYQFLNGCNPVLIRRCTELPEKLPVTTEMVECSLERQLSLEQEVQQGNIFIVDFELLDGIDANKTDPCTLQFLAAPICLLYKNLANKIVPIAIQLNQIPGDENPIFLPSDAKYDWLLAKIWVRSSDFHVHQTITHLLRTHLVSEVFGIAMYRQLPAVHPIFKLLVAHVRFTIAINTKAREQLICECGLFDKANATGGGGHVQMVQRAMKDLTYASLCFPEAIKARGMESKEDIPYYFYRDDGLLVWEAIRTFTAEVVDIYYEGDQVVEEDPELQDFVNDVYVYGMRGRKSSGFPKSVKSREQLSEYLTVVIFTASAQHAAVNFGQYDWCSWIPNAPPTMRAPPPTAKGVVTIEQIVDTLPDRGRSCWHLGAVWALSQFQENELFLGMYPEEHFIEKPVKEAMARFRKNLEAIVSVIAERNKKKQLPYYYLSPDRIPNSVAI

[2] = target: Voltage-dependent L-type calcium channel subunit alpha-1C (DHP site) (Rattus norvegicus, UniProt P22002); assay: CA+/DHPSI/RA Eurofins-Panlabs selectivity data (BI); conditions: compound concentration 10 uM, read-out: % Ctrl
[3] = target: Sodium-dependent dopamine transporter (Homo sapiens, UniProt Q01959); assay: DATRANS/H Eurofins-Panlabs selectivity data (BI); conditions: Compound concentration 10.0 uM
[4] = system: Tyrosine-protein kinase ABL1 (Homo sapiens), P00519 [H396P]; conditions: Compound concentration 1000.0 nM
[5] = system: Tyrosine-protein kinase ABL1 (Homo sapiens), P00519 [Q252H]; conditions: Compound concentration 1000.0 nM
[6] = target: Cyclin-dependent kinase 4 (Homo sapiens) (UniProt P11802); conditions: Compound concentration 1000.0 nM
[7] = target: Ephrin type-B receptor 1 (Homo sapiens) (UniProt P54762); conditions: Compound concentration 1000.0 nM
[8] = target: Ephrin type-B receptor 2 (Homo sapiens) (UniProt P29323); conditions: Compound concentration 1000.0 nM
[9] = target: Receptor tyrosine-protein kinase erbB-2 (Homo sapiens) (UniProt P04626); conditions: Compound concentration 1000.0 nM
[10] = target: Tyrosine-protein kinase Fgr (Homo sapiens) (UniProt P09769); conditions: Compound concentration 1000.0 nM
[11] = target: Tyrosine-protein kinase Fyn (Homo sapiens) (UniProt P06241); conditions: Compound concentration 1000.0 nM
[12] = target: G protein-coupled receptor kinase 4 (Homo sapiens) (UniProt P32298); conditions: Compound concentration 1000.0 nM
[13] = system: Mast/stem cell growth factor receptor Kit (Homo sapiens), P10721 [D816V]; conditions: Compound concentration 1000.0 nM
[14] = target: Serine/threonine-protein kinase LATS1 (Homo sapiens) (UniProt O95835); conditions: Compound concentration 1000.0 nM
[15] = target: Dual specificity mitogen-activated protein kinase kinase 1 (Homo sapiens) (UniProt Q02750); conditions: Compound concentration 1000.0 nM
[16] = target: Misshapen-like kinase 1 (Homo sapiens) (UniProt Q8N4C8); conditions: Compound concentration 1000.0 nM
[17] = system: Phosphatidylinositol 4,5-bisphosphate 3-kinase catalytic subunit alpha isoform (Homo sapiens), P42336 [E545A]; conditions: Compound concentration 1000.0 nM
[18] = target: Phosphatidylinositol 4,5-bisphosphate 3-kinase catalytic subunit beta isoform (Homo sapiens) (UniProt P42338); conditions: Compound concentration 1000.0 nM
[19] = target: Phosphatidylinositol 4,5-bisphosphate 3-kinase catalytic subunit gamma isoform (Homo sapiens) (UniProt P48736); conditions: Compound concentration 1000.0 nM
[20] = target: cGMP-dependent protein kinase 1 (Homo sapiens) (UniProt Q13976); conditions: Compound concentration 1000.0 nM
[21] = system: Proto-oncogene tyrosine-protein kinase receptor Ret (Homo sapiens), P07949 [V804L]; conditions: Compound concentration 1000.0 nM
[22] = target: Ribosomal protein S6 kinase alpha-3 (Homo sapiens) (UniProt P51812); conditions: Compound concentration 1000.0 nM
[23] = target: Ribosomal protein S6 kinase alpha-3 (Homo sapiens) (UniProt P51812); conditions: Compound concentration 1000.0 nM; remark: listed apart in the source
[24] = target: Serine/threonine-protein kinase SBK1 (Homo sapiens) (UniProt Q52WX2); conditions: Compound concentration 1000.0 nM
[25] = target: Uncharacterized serine/threonine-protein kinase SBK3 (Homo sapiens) (UniProt P0C264); conditions: Compound concentration 1000.0 nM
[26] = target: Serine/threonine-protein kinase SIK2 (Homo sapiens) (UniProt Q9H0K1); conditions: Compound concentration 1000.0 nM
[27] = target: SRSF protein kinase 3 (Homo sapiens) (UniProt Q9UPE1); conditions: Compound concentration 1000.0 nM
[28] = target: Serine/threonine-protein kinase TAO1 (Homo sapiens) (UniProt Q7L7X3); conditions: Compound concentration 1000.0 nM
[29] = target: Serine/threonine-protein kinase VRK2 (Homo sapiens) (UniProt Q86Y07); conditions: Compound concentration 1000.0 nM
[30] = target: Serine/threonine-protein kinase 32A (Homo sapiens) (UniProt Q8WU08); conditions: Compound concentration 1000.0 nM
[31] = target: 5-hydroxytryptamine receptor 1E (Homo sapiens) (UniProt P28566); conditions: Compound concentration 10.0 uM
[32] = target: 5-hydroxytryptamine receptor 7 (Homo sapiens) (UniProt P34969); conditions: Compound concentration 10.0 uM
[33] = target: D(2) dopamine receptor (Homo sapiens) (UniProt P14416); conditions: Compound concentration 10.0 uM
[34] = target: Muscarinic acetylcholine receptor M2 (Homo sapiens) (UniProt P08172); conditions: Compound concentration 10.0 uM
Rattus norvegicus = species on record: Rattus norvegicus; conditions: Compound concentration 10.0 uM

Sequence of Ribosomal protein S6 kinase alpha-3 (Homo sapiens) (P51812 whole entry): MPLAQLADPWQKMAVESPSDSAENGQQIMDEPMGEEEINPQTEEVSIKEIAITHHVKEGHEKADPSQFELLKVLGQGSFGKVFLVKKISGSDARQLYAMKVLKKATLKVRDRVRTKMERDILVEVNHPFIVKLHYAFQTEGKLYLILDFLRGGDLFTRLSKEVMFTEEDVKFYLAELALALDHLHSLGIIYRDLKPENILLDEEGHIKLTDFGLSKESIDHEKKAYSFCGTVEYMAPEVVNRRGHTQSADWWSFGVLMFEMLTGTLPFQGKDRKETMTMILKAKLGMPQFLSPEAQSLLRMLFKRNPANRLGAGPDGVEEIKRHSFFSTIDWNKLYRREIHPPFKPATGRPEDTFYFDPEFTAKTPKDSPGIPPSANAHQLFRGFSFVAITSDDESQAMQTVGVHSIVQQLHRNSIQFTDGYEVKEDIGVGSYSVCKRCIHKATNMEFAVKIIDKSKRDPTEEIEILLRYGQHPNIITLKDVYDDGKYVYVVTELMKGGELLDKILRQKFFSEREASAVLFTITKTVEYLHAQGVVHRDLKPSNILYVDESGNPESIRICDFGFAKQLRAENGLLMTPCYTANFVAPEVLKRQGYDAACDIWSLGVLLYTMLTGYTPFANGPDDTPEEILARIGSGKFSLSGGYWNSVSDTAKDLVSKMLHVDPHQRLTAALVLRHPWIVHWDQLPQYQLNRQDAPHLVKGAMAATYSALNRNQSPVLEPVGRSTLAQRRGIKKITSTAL
Sequence of Uncharacterized serine/threonine-protein kinase SBK3 (Homo sapiens) (P0C264 whole entry): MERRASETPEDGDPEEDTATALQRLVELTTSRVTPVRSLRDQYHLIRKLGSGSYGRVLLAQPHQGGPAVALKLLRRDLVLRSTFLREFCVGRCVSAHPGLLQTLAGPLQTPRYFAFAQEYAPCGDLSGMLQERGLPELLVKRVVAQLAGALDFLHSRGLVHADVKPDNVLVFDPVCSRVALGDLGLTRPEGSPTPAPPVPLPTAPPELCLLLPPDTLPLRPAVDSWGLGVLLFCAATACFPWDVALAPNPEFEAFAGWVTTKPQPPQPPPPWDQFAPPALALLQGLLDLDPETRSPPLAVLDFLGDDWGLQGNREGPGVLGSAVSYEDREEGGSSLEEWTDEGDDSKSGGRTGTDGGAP
Sequence of 5-hydroxytryptamine receptor 7 (Homo sapiens) (P34969 whole entry): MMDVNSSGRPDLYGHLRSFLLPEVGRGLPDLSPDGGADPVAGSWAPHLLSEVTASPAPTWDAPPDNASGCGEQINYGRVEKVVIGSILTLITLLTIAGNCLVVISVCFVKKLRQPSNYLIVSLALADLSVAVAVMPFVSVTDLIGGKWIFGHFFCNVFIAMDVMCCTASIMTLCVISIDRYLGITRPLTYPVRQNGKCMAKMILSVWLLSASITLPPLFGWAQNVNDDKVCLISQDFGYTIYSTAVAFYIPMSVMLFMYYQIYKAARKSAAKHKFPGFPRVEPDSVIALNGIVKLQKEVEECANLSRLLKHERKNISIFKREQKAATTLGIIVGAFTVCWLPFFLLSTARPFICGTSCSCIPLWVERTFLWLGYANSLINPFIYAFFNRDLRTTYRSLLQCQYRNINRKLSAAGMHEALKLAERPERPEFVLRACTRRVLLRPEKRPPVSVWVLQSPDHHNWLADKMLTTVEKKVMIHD
Sequence of Sodium-dependent dopamine transporter (Q01959 whole entry): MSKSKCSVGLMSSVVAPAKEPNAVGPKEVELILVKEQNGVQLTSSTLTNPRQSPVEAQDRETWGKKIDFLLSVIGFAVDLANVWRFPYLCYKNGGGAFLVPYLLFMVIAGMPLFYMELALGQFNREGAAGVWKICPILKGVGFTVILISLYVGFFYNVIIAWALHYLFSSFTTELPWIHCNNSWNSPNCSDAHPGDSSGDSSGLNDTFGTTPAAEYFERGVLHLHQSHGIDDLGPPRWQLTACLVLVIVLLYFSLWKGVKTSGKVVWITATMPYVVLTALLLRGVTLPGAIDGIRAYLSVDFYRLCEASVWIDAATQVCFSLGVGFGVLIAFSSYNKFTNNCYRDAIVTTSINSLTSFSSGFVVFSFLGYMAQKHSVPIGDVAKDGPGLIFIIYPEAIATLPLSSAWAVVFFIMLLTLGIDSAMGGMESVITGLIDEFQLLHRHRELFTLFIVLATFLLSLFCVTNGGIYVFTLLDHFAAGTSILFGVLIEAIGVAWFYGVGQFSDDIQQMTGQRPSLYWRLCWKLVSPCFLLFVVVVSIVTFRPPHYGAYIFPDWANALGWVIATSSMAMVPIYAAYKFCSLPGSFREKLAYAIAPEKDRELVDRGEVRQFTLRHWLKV
Sequence of Proto-oncogene tyrosine-protein kinase receptor Ret (Homo sapiens), P07949 [V804L] (P07949 whole entry V804L): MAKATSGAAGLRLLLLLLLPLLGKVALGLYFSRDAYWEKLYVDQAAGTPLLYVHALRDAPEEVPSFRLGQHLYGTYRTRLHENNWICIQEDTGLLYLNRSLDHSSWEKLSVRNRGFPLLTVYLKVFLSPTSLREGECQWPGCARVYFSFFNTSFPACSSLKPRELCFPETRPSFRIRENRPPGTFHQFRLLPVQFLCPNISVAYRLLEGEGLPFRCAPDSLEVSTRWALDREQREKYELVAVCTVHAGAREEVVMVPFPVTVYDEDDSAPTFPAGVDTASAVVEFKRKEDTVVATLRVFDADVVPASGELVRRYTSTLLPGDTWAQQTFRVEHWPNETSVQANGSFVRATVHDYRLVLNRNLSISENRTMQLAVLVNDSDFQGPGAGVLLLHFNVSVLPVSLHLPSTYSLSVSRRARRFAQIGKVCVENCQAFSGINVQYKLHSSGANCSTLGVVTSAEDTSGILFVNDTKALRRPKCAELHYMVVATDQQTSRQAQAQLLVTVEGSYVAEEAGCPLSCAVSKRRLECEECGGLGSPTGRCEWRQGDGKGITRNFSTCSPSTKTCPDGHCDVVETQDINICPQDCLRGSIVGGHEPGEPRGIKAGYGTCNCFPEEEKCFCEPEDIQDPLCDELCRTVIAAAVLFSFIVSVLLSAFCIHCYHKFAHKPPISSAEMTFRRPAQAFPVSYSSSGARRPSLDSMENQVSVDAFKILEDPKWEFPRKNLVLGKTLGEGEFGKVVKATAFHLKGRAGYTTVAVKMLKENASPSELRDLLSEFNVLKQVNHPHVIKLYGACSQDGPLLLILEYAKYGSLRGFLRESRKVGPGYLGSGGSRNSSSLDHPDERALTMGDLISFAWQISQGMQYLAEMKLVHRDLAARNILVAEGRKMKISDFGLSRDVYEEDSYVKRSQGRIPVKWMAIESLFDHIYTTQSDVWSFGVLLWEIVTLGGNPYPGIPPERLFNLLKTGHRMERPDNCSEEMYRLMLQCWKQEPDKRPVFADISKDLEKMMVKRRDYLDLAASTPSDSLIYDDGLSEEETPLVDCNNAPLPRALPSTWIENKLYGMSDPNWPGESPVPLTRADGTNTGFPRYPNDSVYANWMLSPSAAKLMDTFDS
Sequence of Serine/threonine-protein kinase TAO1 (Homo sapiens) (Q7L7X3 whole entry): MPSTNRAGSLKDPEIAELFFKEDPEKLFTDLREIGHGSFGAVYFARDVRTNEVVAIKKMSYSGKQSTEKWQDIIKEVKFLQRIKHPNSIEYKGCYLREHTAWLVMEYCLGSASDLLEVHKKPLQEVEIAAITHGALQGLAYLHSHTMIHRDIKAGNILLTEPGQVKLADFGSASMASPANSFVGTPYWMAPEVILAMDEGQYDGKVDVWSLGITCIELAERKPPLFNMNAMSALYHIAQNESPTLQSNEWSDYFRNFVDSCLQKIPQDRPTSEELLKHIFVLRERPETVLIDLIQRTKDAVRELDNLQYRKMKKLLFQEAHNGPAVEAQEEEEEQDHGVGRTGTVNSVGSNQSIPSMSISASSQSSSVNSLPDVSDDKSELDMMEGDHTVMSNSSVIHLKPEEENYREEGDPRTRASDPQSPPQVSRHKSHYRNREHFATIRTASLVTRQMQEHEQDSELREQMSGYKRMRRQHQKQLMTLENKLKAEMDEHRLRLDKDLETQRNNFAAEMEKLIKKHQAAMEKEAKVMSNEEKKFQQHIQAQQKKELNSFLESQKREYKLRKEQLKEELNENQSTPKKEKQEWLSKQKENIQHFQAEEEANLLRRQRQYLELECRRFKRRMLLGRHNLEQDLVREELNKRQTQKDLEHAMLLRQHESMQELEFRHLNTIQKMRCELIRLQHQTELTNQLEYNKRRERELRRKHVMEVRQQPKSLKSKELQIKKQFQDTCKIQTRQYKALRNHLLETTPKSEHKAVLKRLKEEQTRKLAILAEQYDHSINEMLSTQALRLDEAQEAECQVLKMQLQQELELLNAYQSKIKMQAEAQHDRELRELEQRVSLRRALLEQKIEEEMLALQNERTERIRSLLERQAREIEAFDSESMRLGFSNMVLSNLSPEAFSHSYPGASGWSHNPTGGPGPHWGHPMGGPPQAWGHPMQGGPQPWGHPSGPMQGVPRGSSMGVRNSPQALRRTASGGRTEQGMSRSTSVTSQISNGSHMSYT
Sequence of G protein-coupled receptor kinase 4 (Homo sapiens) (P32298 whole entry, looked up): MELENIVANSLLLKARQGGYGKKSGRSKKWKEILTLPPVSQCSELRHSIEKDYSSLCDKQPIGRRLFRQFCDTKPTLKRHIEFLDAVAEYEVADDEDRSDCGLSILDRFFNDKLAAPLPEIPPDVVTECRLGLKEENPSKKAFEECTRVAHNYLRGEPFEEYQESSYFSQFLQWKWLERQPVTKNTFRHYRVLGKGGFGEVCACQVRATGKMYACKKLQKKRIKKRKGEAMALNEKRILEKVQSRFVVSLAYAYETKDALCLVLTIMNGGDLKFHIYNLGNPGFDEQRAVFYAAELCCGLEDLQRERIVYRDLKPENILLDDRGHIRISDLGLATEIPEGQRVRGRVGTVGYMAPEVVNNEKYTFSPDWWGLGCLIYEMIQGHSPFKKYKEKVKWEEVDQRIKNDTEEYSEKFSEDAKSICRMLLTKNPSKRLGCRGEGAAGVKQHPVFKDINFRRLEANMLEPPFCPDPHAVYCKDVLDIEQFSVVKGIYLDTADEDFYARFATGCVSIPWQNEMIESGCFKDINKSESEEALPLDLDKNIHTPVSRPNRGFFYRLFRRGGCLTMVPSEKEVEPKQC

Question: Which results are given for `CCOCCn1cc(C(=O)Nc2ccc(-n3nc(-c4cccnc4)cc3C(F)(F)F)cn2)ccc1=O` [BI 1935]?
Answer: residual activity ([1]; Compound concentration 0.3 uM): 99%; residual activity ([1]; Compound concentration 1.0 uM): 88%; residual activity ([1]; Compound concentration 3.0 uM): 74%; residual activity ([1]; Compound concentration 10.0 uM): 27.5%; residual activity ([1]; Compound concentration 30.0 uM): 2%; activity at 10 µM [2]: 94.5% (not active); residual activity [3]: 98%; residual activity [4]: 94%; residual activity [5]: 83%; residual activity [6]: 93%; residual activity [7]: 100%; residual activity [8]: 61%; residual activity [9]: 100%; residual activity [10]: 100%; residual activity [11]: 53%; residual activity [12]: 100%; residual activity [13]: 92%; residual activity [14]: 69%; residual activity [15]: 86%; residual activity [16]: 89%; residual activity [17]: 100%; residual activity [18]: 82%; residual activity [19]: 100%; residual activity [20]: 98%; residual activity [21]: 97%; residual activity [22]: 84%; residual activity [23]: 87%; residual activity [24]: 91%; residual activity [25]: 78%; residual activity [26]: 91%; residual activity [27]: 100%; residual activity [28]: 87%; residual activity [29]: 97%; residual activity [30]: 96%; inhibition [31]: -4.17%; inhibition [32]: -4.21%; inhibition [33]: -5.62%; inhibition [34]: -3%; inhibition (Rattus norvegicus): -5.52%

From ChEMBL document CHEMBL4507283, “Data for DCP probe BI-1935” (2021)
